DC50 and Dmax data for eleven compounds are collected here from patent US12599672B2, “KRAS proteolysis targeting chimeras” (PAQ Therapeutics Inc., priority 2023, dated 2026).

Where only a bound is given, the exact number is not on record here.

Common to all, as to format: cell-based
One assay deals with T1, KRAS G12D (Homo sapiens, UniProt P01116, G12D).
T1 construct: AsPc-1-KRAS (G12D)-HiBit-KI cell (Pharmaron); host or cells: AsPc-1-KRAS (G12D)-HiBit-KI cells (HiBiT knock-in at the endogenous KRAS locus)
In words: KRAS G12D HiBit assay. The note with it: AsPc-1-KRAS (G12D)-HiBit-KI cell, compound treatment for 24 hours; for DC50: absolute DC50. In outline:
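HiBiT luminescence, detected by adding lytic buffer, substrate and LgBiT protein, served as the KRAS G12D read-out. Compounds, serially diluted 3-fold over 10 points from 0.3 mM DMSO stock, were on cells for 24 h; percent inhibition normalized to cells given 0.1% DMSO only.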

For a further assay, the target named is T2, KRAS G12V (Homo sapiens, UniProt P01116, G12V).
T2 construct: SW620-KRAS (G12V)-HiBit-KI cell (Pharmaron); host or cells: SW620-KRAS (G12V)-HiBit-KI cells (HiBiT knock-in at the endogenous KRAS locus)
Nature of the assay: KRAS G12V HiBit assay. The note with it: SW620-KRAS (G12V)-HiBit-KI cells, compound treatment for 24 hours, class symbols. In outline:
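Luminescence from lytic Nano-Glo HiBiT detection with LgBiT read KRAS G12V levels after 24 h compound exposure. Dilutions were 10-point, 3-fold, from a 0.3 mM DMSO stock. Degradation activity was normalised to cells given 0.1% DMSO alone.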

The next assay concerns the target T3, KRAS (Homo sapiens, UniProt P01116).
T3 construct: endogenous in cells; host or cells: KE39 (KRAS amplified) cells
In words: KRASamp MSD assay. The following applies: KE39 (KRAS amplified) cells, treated with test compounds for 24 hr, MSD readout of KRAS degradation. In outline: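 Degradation DC50 derived by curve fitting, with KRAS levels quantified by MSD electrochemiluminescence (capture/detection antibodies, recombinant WT KRAS standard). Lysates prepared from KE39 cells (KRAS amplified) exposed to test compounds for 24 hr.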

[1] abbreviates: numeric bounds given in place of class symbols.

T1 sequence (P01116 1-188 isoform P01116-2 G12D): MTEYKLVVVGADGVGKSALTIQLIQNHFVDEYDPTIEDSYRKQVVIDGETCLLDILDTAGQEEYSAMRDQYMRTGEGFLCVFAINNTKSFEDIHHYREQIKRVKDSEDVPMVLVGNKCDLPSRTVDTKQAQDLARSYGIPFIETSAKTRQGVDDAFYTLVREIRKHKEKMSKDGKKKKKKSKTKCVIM
T3 sequence (P01116 1-188 isoform P01116-2): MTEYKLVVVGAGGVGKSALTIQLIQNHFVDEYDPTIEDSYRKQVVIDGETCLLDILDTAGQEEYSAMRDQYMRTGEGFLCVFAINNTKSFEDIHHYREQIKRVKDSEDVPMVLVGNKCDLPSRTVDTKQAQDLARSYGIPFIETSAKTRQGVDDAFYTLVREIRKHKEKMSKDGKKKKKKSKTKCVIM
T2 sequence (P01116 1-188 isoform P01116-2 G12V): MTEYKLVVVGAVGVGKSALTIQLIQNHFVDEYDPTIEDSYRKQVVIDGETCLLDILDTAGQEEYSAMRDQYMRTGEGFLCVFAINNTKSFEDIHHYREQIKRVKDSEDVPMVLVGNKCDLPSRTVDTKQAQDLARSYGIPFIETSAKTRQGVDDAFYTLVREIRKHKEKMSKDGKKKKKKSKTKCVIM

`CCc1c(F)ccc2cc(O)cc(-c3ncc4c(N5CCC[C@@](C)(O)C5)nc(OC[C@@]56CCCN5[C@H](COC(=O)N5CCC7(CC5)CC(N5CCC(c8ccc9c(c8)n(C)c(=O)n9C8CCC(=O)NC8=O)CC5)C7)CC6)nc4c3F)c12` (stereo partly drawn) [Compound 159, ((3S,7aS)-7a-(((7-(8-Ethyl-7-fluoro-3-hydroxynaphthalen-1-yl)-8-fluoro-4-((R)-3-hydroxy-3-methylpiperidin-1-yl)pyrido[4,3-d]pyrimidin-2-yl)oxy)methyl)hexahydro-1H-pyrrolizin-3-yl)methyl2-(4-(1-(2,6-dioxopiperidin-3-yl)-3-methyl-2-oxo-2,3-dihydro-1H-benzo[d]imidazol-5-yl)piperidin-1-yl)-7-azaspiro[3.5]nonane-7-carboxylate]: the DC50 is < 100 nM at KRAS G12D (class symbols), < 10 nM on KRAS G12V and < 1 nM at KRAS.

With `C#Cc1c(F)ccc2cc(O)cc(-c3ncc4c(N5CCC[C@@](C)(O)C5)nc(OCC5(CN6CCC7(CC6)CCN(c6cccc8c6n(C)c(=O)n8C6CCC(=O)NC6=O)CC7)CC5)nc4c3F)c12` (stereo partly shown) [Compound 67], the figures for the DC50 at KRAS G12D (class symbols), at KRAS G12V and at KRAS were < 100 nM, < 10 nM and 1 to 10 nM, respectively.

On to `CCc1c(F)ccc2cc(O)cc(-c3ncc4c(N5CCC[C@@](C)(O)C5)nc(OC[C@]56CCCN5[C@H](COC(=O)NC5CCCN(c7cccc8c7n(C)c(=O)n8C7CCC(=O)NC7=O)C5)CC6)nc4c3F)c12` (stereo partly drawn) [Compound 312, ((3S,7aR)-7a-(((7-(8-ethyl-7-fluoro-3-hydroxynaphthalen-1-yl)-8-fluoro-4-((R)-3-hydroxy-3-methylpiperidin-1-yl)pyrido[4,3-d]pyrimidin-2-yl)oxy)methyl)hexahydro-1H-pyrrolizin-3-yl)methyl (1-(1-(2,6-dioxopiperidin-3-yl)-3-methyl-2-oxo-2,3-dihydro-1H-benzo[d]imidazol-4-yl)piperidin-3-yl)carbamate], for which the DC50 is > 100 nM at KRAS G12D (setting [1]), 10 to 100 nM on KRAS G12V and ≥ 10 nM at KRAS.

As for `CCc1c(F)ccc2cc(O)cc(-c3ncc4c(N5CCC[C@@](C)(O)C5)nc(OC[C@@]56CCCN5[C@H](CN5CCC(CN7CCC(Cc8ccc9c(c8)n(C)c(=O)n9C8CCC(=O)NC8=O)CC7)CC5)CC6)nc4c3F)c12` (stereo partly drawn) [Compound 436, 3-(5-((1-((1-(((3S,7aS)-7a-(((7-(8-ethyl-7-fluoro-3-hydroxynaphthalen-1-yl)-8-fluoro-4-((R)-3-hydroxy-3-methylpiperidin-1-yl)pyrido[4,3-d]pyrimidin-2-yl)oxy)methyl)hexahydro-1H-pyrrolizin-3-yl)methyl)piperidin-4-yl)methyl)piperidin-4-yl)methyl)-3-methyl-2-oxo-2,3-dihydro-1H-benzo[d]imidazol-1-yl)piperidine-2,6-dione], the DC50 on KRAS G12D (class symbols) was < 100 nM; on KRAS G12V it was 10 to 100 nM; on KRAS, 1 to 10 nM.

Take `CCc1c(F)ccc2cc(O)cc(-c3ncc4c(N5CCC[C@@](C)(O)C5)nc(OC[C@@]56CCCN5[C@@H](COC(=O)N5CCC(CCOc7ccc8c(c7)n(C)c(=O)n8C7CCC(=O)NC7=O)CC5)CC6)nc4c3F)c12` (stereo partly drawn) [Compound 315, ((3R,7aS)-7a-(((7-(8-ethyl-7-fluoro-3-hydroxynaphthalen-1-yl)-8-fluoro-4-((R)-3-hydroxy-3-methylpiperidin-1-yl)pyrido[4,3-d]pyrimidin-2-yl)oxy)methyl)hexahydro-1H-pyrrolizin-3-yl)methyl 4-(2-((1-(2,6-dioxopiperidin-3-yl)-3-methyl-2-oxo-2,3-dihydro-1H-benzo[d]imidazol-5-yl)oxy)ethyl)piperidine-1-carboxylate]: the DC50 on KRAS G12D (setting [1]) is > 100 nM; on KRAS G12V it was > 100 nM; at KRAS, ≥ 10 nM.

For the compound `CCc1c(F)ccc2cc(O)cc(-c3ncc4c(N5CCC[C@@](C)(O)C5)nc(OC[C@@]56CCCN5[C@H](COC(=O)N5CCC(CN7CCC(c8ccc9c(c8F)n(C)c(=O)n9C8CCC(=O)NC8=O)CC7)CC5)CC6)nc4c3F)c12` (stereo partly drawn) [Compound 96, [(3S,8S)-8-[[7-(8-Ethyl-7-fluoro-3-hydroxy-1-naphthyl)-8-fluoro-4-[(3R)-3-hydroxyl-3-methyl-1-piperidyl]pyrido[4,3-d]pyrimidin-2-yl]oxymethyl]-1,2,3,5,6,7-hexahydropyrrolizin-3-yl]methyl4-[[4-[1-(2,6-dioxo-3-piperidyl)-4-fluoro-3-methyl-2-oxo-benzimidazol-5-yl]-1-piperidyl]methyl]piperidine-1-carboxylate], the DC50 was < 100 nM at KRAS G12D (class symbols), < 10 nM at KRAS G12V and < 1 nM on KRAS. The Dmax at KRAS G12D (class symbols) is > 50%.

Take `C#Cc1c(F)ccc2cc(O)cc(-c3ncc4c(N5CCC[C@@](C)(O)C5)nc(OC[C@@]56CCCN5[C@H](COC(=O)N5CC7(CCC(N8CCC(c9ccc%10c(c9)n(C)c(=O)n%10C9CCC(=O)NC9=O)CC8)CC7)C5)CC6)nc4c3F)c12` (stereo partly drawn) [Compound 420, ((3S,7aS)-7a-(((7-(8-ethynyl-7-fluoro-3-hydroxynaphthalen-1-yl)-8-fluoro-4-((R)-3-hydroxy-3-methylpiperidin-1-yl)pyrido[4,3-d]pyrimidin-2-yl)oxy)methyl)hexahydro-1H-pyrrolizin-3-yl)methyl 7-(4-(1-(2,6-dioxopiperidin-3-yl)-3-methyl-2-oxo-2,3-dihydro-1H-benzo[d]imidazol-5-yl)piperidin-1-yl)-2-azaspiro[3.5]nonane-2-carboxylate]: the results for the DC50 on KRAS G12D (class symbols), on KRAS G12V and at KRAS were < 100 nM, 10 to 100 nM and 1 to 10 nM, respectively.

With `C#Cc1c(F)ccc2cc(O)cc(-c3ncc4c(N5CCC[C@@](C)(O)C5)nc(OC[C@@]56CCCN5[C@H](COC(=O)N5CCC(CC#Cc7cccc8c7n(C)c(=O)n8C7CCC(=O)NC7=O)CC5)CC6)nc4c3F)c12` (stereo partly drawn) [Compound 374, ((3S,7aS)-7a-(((7-(8-ethynyl-7-fluoro-3-hydroxynaphthalen-1-yl)-8-fluoro-4-((R)-3-hydroxy-3-methylpiperidin-1-yl)pyrido[4,3-d]pyrimidin-2-yl)oxy)methyl)hexahydro-1H-pyrrolizin-3-yl)methyl 4-(3-(1-(2,6-dioxopiperidin-3-yl)-3-methyl-2-oxo-2,3-dihydro-1H-benzo[d]imidazol-4-yl)prop-2-yn-1-yl)piperidine-1-carboxylate], the DC50 on KRAS G12D (class symbols) is 100 to 300 nM; on KRAS G12V, 10 to 100 nM; on KRAS it was 1 to 10 nM.

Regarding `CCc1c(F)ccc2cc(O)cc(-c3ncc4c(N5CC[C@@H](O)C5)nc(OC[C@@]56CCCN5[C@H](COC(=O)N5CCC7(CC5)CC(N5CCC(c8ccc9c(c8)n(C)c(=O)n9C8CCC(=O)NC8=O)CC5)C7)CC6)nc4c3F)c12` (stereo partly drawn) [Compound 350, ((3S,7aS)-7a-(((7-(8-ethyl-7-fluoro-3-hydroxynaphthalen-1-yl)-8-fluoro-4-((R)-3-hydroxypyrrolidin-1-yl)pyrido[4,3-d]pyrimidin-2-yl)oxy)methyl)hexahydro-1H-pyrrolizin-3-yl)methyl 2-(4-(1-(2,6-dioxopiperidin-3-yl)-3-methyl-2-oxo-2,3-dihydro-1H-benzo[d]imidazol-5-yl)piperidin-1-yl)-7-azaspiro[3.5]nonane-7-carboxylate], the DC50 on KRAS G12D (class symbols) is < 100 nM; at KRAS G12V, < 10 nM; on KRAS it was 1 to 10 nM.

Turning to `C#Cc1c(F)ccc2cc(O)cc(-c3ncc4c(N5CCC[C@@](C)(O)C5)nc(OCC5(CN6CCC7(CC6)CC(N6CCN(c8cccc9c8n(C)c(=O)n9C8CCC(=O)NC8=O)CC6)C7)CC5)nc4c3F)c12` (stereo partly shown) [Compound 71], the DC50 at KRAS G12D (class symbols) is < 100 nM; at KRAS G12V, < 10 nM; at KRAS, < 1 nM.

As for `CCc1c(F)ccc2cc(O)cc(-c3ncc4c(N5CCC[C@@](C)(O)C5)nc(OC[C@@]56CCCN5[C@H](COC(=O)N5CC7(CN(CC8CCN(c9ccc%10c(c9)n(C)c(=O)n%10C9CCC(=O)NC9=O)CC8)C7)C5)CC6)nc4c3F)c12` (stereo partly drawn) [Compound 462, ((3S,7aS)-7a-(((7-(8-ethyl-7-fluoro-3-hydroxynaphthalen-1-yl)-8-fluoro-4-((R)-3-hydroxy-3-methylpiperidin-1-yl)pyrido[4,3-d]pyrimidin-2-yl)oxy)methyl)hexahydro-1H-pyrrolizin-3-yl)methyl 6-((1-(1-(2,6-dioxopiperidin-3-yl)-3-methyl-2-oxo-2,3-dihydro-1H-benzo[d]imidazol-5-yl)piperidin-4-yl)methyl)-2,6-diazaspiro[3.3]heptane-2-carboxylate], the figures for the DC50 at KRAS G12D (class symbols), at KRAS G12V and on KRAS were < 100 nM, < 10 nM and 1 to 10 nM, respectively.
